Values quoted from earlier work as cited in PMC8198792, “Prediction of Anticancer Peptides with High Efficacy and Low Toxicity by Hybrid Model Based on 3D Structure of Peptides” (International Journal of Molecular Sciences, 2021).
Read-outs that look alike come from different tables or passages of the source.

System: cancer cell lines
Set-up: method as in 6 sources, ref CancerPPD [45] and SATPdb ||| ref CancerPPD/SATPdb ||| ref CancerPPD, SATPdb, Swissprot (PDB) ||| ref CancerPPD/SATPdb/Swissprot(PDB) ||| ref CancerPPD / SATPdb ||| ...
Details: cited from earlier work
From the text: Supplement ijms-22-05630-s001.zip/ACPs(seguence).xlsx, sheet "D1" | column: Activity || Supplement ijms-22-05630-s001.zip/ACPs(seguence).xlsx, sheet "D2" | column: Activity || Supplement ijms-22-05630-s001.zip/ACPs(seguence).xlsx, sheet "D3" | column: Activity || (+ 2 further places)

[1] = ACPs dataset D3 (supplement sheet "D3"), 1 = ACP, 0 = non-ACP, ref CancerPPD [45] and SATPdb
[2] = ACPs dataset D4 (sheet "D4"), label 1 = ACP, experimentally validated ACPs, ref CancerPPD [45] and SATPdb
[3] = ACPs dataset D5 (sheet "D5"), label 1 = ACP (positive set), sequences with CancerPPD/SATPdb ID, ref CancerPPD, SATPdb
[4] = ACPs dataset D1, label 1 = ACP, 0 = non-ACP (non-anticancer AMPs from SATPdb), ref CancerPPD/SATPdb
[5] = ACPs dataset D4 (sheet "D4"), label 1 = ACP (CancerPPD ID), 0 = non-ACP (non-anticancer AMP, SATPdb ID), ref CancerPPD [45] and SATPdb
[6] = ACPs dataset D5 (sheet "D5"), label 1 = ACP (positive set), 0 = non-ACP (negative set), ref CancerPPD [45] and SATPdb
[7] = ACPs dataset D1, 1 = ACP (positive), 0 = non-ACP (negative), label taken from databases, ref CancerPPD [45] and SATPdb
[8] = ACPs dataset sheet D2, 1 = ACP (CancerPPD/SATPdb ID), 0 = non-ACP (Swissprot/PDB ID), ref CancerPPD, SATPdb, Swissprot (PDB)
[9] = ACPs dataset D4 (sheet "D4"), label 1 = ACP, 0 = non-ACP, ref CancerPPD / SATPdb
[10] = ACPs dataset D2 (supplement ACPs(seguence).xlsx, sheet D2), dataset label 1/0 (ACP / non-ACP), entries identified by Swissprot(PDB ID), ref CancerPPD/SATPdb/Swissprot(PDB)
[11] = ACPs dataset D5, sheet "D5", label 1 = ACP, 0 = non-ACP, ref CancerPPD [45] and SATPdb
[12] = ACPs dataset D3 (sheet "D3"), label 1 = ACP, 0 = non-ACP, ref CancerPPD/SATPdb

Substance	Activity [2]	Activity [3]	Activity [5]	Activity [7]	Activity [8]	other results
FAKLA [compound 1859]	1	1	–	–	–	Activity [1]: 1
EDGLHPRLCSC [satpdb11408]	–	–	0	–	–	Activity [4]: 0
VAKKLAKLAKKLAKLAL [compound 1919]	–	–	1	–	–	Activity [1]: 1; Activity [6]: 1
GCSRWIIGIHGQICRD [satpdb12437]	–	–	0	–	–	Activity [4]: 0
GMATKAGTAFGKAAKAIIGAAL [satpdb11334]	–	–	0	0	–	–
GLFKVIKKVAKVIKKL [compound 4156]	–	–	1	–	–	Activity [1]: 1; Activity [6]: 1
GIFGKILGAGKKVLCGLSGLC [satpdb11792]	–	–	0	–	–	Activity [4]: 0
FLKLLKKLAAKLF [compound 1005]	1	1	–	1	1	–
GFGCPGNQLKCNNHCKSISCRAGYCDAATLWLRCTCTDCNGKK [satpdb11046]	–	–	0	0	–	–
FLGALAKIISGIF [satpdb11200]	–	–	0	0	–	–
GFGMALOLLOOVL [compound 3597]	–	–	1	–	–	Activity [1]: 1; Activity [6]: 1
FLPAIAGMAAKFLPKIFCAISKKC [satpdb12699]	–	–	–	–	–	Activity [4]: 0; Activity [9]: 0
KWKIFKKIEHMGQNIRDGLIKAGPAVQVVGQAATIYKG [satpdb11253]	–	–	0	0	–	–
TFRAFLSSRLQDLYSIVRRADRAAV [compound 4202]	1	1	–	1	1	–
ALSKALSKALSKALSKALSKALSK [compound 1357]	1	1	–	–	–	Activity [1]: 1
TLPFAYCNIHQVCHYAQRNDRSYWL [satpdb12859]	1	1	–	1	1	–
MDIYVCTVCGYEYDPAKGDPDSGIKPGTKFEDLPDDWACPVCGASKDAFEKQ [2DSX X-ray 0.68 A 1-52]	–	–	–	–	–	Activity [10]: 0; Activity [11]: 0
MRLKKRFKKFFISRKEYEKIEEILDIGLAKAMEETKDDELLTYDEIKELLGDK [3BPQ X-ray 2.20,A/C,1-52]	–	–	–	–	–	Activity [10]: 0; Activity [11]: 0
IYSFDGRDIMTDPSWPQKVIWHGSSPHGVRLVDNYCEAWRTA [satpdb23000]	1	1	–	1	1	–
GLASFLGKALKAGLKIGSHLLGGAPQQ [satpdb10480]	–	–	0	0	–	–

Substance	Activity [2]	Activity [3]	Activity [5]	Activity [7]	Activity [8]	other results
KLLKKLLKWLK [satpdb13967]	–	–	–	–	–	Activity [12]: 0; Activity [9]: 0; Activity [11]: 0
MITDVQLAIFANMLGVSLFLLVVLYHYVAVNNPKKQE [2LAT NMR - A 1-37]	–	–	–	–	–	Activity [10]: 0; Activity [6]: 0
FKRiVQRiKDFlRNLV [compound 1530]	1	1	–	–	–	Activity [1]: 1
KAAKKAWKAWKKAAKAAWKKAA [compound 4477]	1	1	–	1	1	–
RLYRKVYGRLYRKVYGRLYRKVYGRLYRKVYGKKK [satpdb11459]	–	–	–	–	–	Activity [1]: 0; Activity [9]: 0; Activity [11]: 0
TEWSACNVRCGRGWQKRSR [satpdb12052]	1	1	–	1	1	–
MKVRSSVKKMCDNCKVVRRHGRVLVICSNVKHKQRQG [2ZJR X-ray 2.91,4,1-37]	–	–	–	–	–	Activity [10]: 0; Activity [6]: 0
GKWMSLLKHIWK [compound 3655]	–	–	1	–	–	Activity [1]: 1; Activity [6]: 1
FLGALFHALSKLL [compound 3266]	1	1	–	1	1	–
GVLSNVIGYLKKLGTGALNAVLKQ [satpdb12685]	–	–	0	–	–	Activity [4]: 0
KSVRGKGKGQKRKRKKSRYK [satpdb21584]	1	1	–	1	1	–
ITIPPIIKDTLKKFFKGGIAGVMGKSQ [satpdb11170]	–	–	0	0	–	–
NVLLSPLSVATALSALSLGAEQRTES [satpdb18073]	1	1	–	1	1	–
LHCPALVTYNTDTFESMPNPEGRYTFGASCV [satpdb27573]	1	1	–	1	1	–
FFGWLIKGAIHAGKAIHGLIHRRRH [compound 4436]	1	1	–	1	1	–
FLGWLFKWAWK [compound 1722]	1	1	–	–	–	Activity [1]: 1
GVWSTILGGLKKFAKGGLDAIVNPK [satpdb10425]	–	–	0	0	–	–
MPCSCKKYCDPWEVIDGSCGLFNSKYICCREK [1EWS NMR - A 1-32]	–	–	–	–	0	Activity [6]: 0
KIKLFKKWPKFLHLAKKF [satpdb14419]	–	–	–	–	–	Activity [12]: 0; Activity [9]: 0; Activity [11]: 0
GLFDIAKKVIGVIGSL [compound 1270]	–	–	1	–	–	Activity [1]: 1; Activity [6]: 1

Substance	Activity [2]	Activity [3]	Activity [5]	Activity [7]	Activity [8]	other results
GKWSKILGHLIR [compound 3641]	–	–	1	–	–	Activity [1]: 1; Activity [6]: 1
LGGIVSAVKKIVDFLG [compound 1903]	–	–	1	–	–	Activity [1]: 1; Activity [6]: 1
KIKSCYYLPCFVTS [satpdb14785]	1	1	–	1	1	–
IDWKKLLDAAKQIL [compound 4438]	1	1	–	1	1	–
GLLGPLLKIAAKVGSNLL [compound 4417]	1	1	–	1	1	–
GLFDVIAKVASVIKKL [compound 4093]	–	–	1	–	–	Activity [1]: 1; Activity [6]: 1
KILRGVAKKIMRTFLRRISKDILTGKK [compound 3325]	–	–	1	–	–	Activity [1]: 1; Activity [6]: 1
GLFDVIKKVASVIKGL [compound 4075]	–	–	1	–	–	Activity [1]: 1; Activity [6]: 1
ECRRLCYKQRCVTYCRGR [compound 4435]	1	1	–	1	1	–
AKRHHGYKRKFH [compound 1423]	1	1	–	–	–	Activity [1]: 1
GIIKKIIIKKIIIKKIIIKKI [compound 1434]	1	1	–	1	1	–
FLSLIPHAIN AVSAIAKHN [2JQ0 NMR - A 1-19]	–	–	–	–	0	Activity [6]: 0
KSSAYSLQMGATAIKQVKKLFKKWGW [compound 4448]	1	1	–	1	1	–
KDCKRESNTFPGICITKPPCRKACIREKFTDGHCSKILRRCLCTKPC [5KK4 X-ray 1.70 A/B/C/D/E/F 1-47]	–	–	–	–	–	Activity [10]: 0; Activity [6]: 0
GLPVCGETCFGGTCNTPGCTCDPWPVCTRN [compound 4427]	1	1	–	1	1	–
MFFSSKKCKTVSKTFRGPCVRNA [satpdb11127]	–	–	0	0	–	–
KLCERSSGTWSGVCGNNNACKNQCINLEGARHGSCNYVFPYHRCICYFPC [satpdb11142]	–	–	0	0	–	–
PGLKGKRGDSGSPATWTTRG [satpdb10562]	1	1	–	1	1	–
DGRKICLDPDAPRIKKIVQKKL [satpdb12249]	1	1	–	1	1	–
SKWSECSRTCGGGVKFQER [satpdb16830]	1	1	–	1	1	–
